Here are results for 5 molecules from article PMC9674851, “Biological effects of the loss of homochirality in a multicellular organism” (Nature Communications, 2022).

Data set [1] addresses T1, purified recombinant human Pimt (Homo sapiens, UniProt P22061).
T1 construct: purchased Gentaur MBS144034
Description: Pimt colorimetric continuous enzyme coupled assay (SAM methyltransferase colorimetric assay). It counts as biochemical. The following applies: Pimt 1 µM, substrate 100 µM, 37 °C. As to the method: SAM Methyltransferase colorimetric assay (Merck) was used to measure the activity of purified recombinant human Pimt (EC 2.1.1.77, MBS144034, Gentaur) on different target substrates at 37 °C. Pimt (1 µM final concentration) enzymatic activity was followed spectrophotometrically by the increase in absorbance at 510 nm using DeNovix DS-11 Series microvolume Spectrophotometer/Fluorometer. Assay was performed on different homo- and heterochiral synthetic substrates Ac-[…]-amide (Peptide 1), Ac-KRKGDEV-(iso-L-Asp)-GVDEVAK-amide (Peptide 2) (both of which HPLC purity is >90%), at 100 µM final concentration. The peptide’s sequence is identical and correspond to the PARP1 fragment which is cleaved by Dcp-1 in the in vivo cleavage assay.

Data set [2] has as its target T2, recombinant human active Caspase-3 (Homo sapiens, UniProt P42574).
T2 construct: Assay was performed with recombinant human active Caspase-3 (556471, BD Biosciences); purchased BD Biosciences 556471
T2 sequence (P42574 29-175 limits assumed): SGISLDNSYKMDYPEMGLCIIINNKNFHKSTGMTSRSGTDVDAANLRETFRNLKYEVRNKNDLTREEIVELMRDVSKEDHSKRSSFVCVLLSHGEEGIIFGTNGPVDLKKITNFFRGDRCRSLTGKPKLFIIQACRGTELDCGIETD
T2 sequence (P42574 176-277 limits assumed): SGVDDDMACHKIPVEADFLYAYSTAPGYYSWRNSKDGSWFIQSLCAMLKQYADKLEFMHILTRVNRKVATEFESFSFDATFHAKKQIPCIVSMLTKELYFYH
Briefly: ChiCAS: chiral-selective in vitro DEVD-ase assay. In kind it is biochemical. The following applies: for caspase-3 activity: substrate 20 µM in HEPES assay buffer with 10 mM DTT, fluorescence at 460 nm; for cleavage by Caspase-3 (in words): recombinant human Caspase-3, fluorogenic AMC substrates. As to the method:
The following homochiral and heterochiral fluorogenic substrates were chemically synthesised: Ac-DEV-(L-aspartate)-AMC (positive control), Ac-DEV-(iso-L-aspartate)-AMC, Ac-DEV-(D-aspartate)-AMC, Ac-DEV-(iso-D-aspartate)-AMC, Ac-DEVG-AMC and Ac-DEV-(L-alanine)-AMC (negative control) and […] (custom peptide synthesis by GenScript). All synthetic peptides were dissolved in DMSO and stored at -80 °C. Reactions were performed as described below. Ac-DEVx-AMC substrates were used in a final concentration of 20 μM in assay buffer (50 mM HEPES, 100 mM NaCl, 0,1% CHAPS, 1 mM EDTA, 10% Glycerol, 10 mM DTT - immediately added before use). Assay was performed with recombinant human active Caspase-3 (556471, BD Biosciences). Reactions were performed in 96 well microplates (100 μl/reaction) and caspase activity was monitored spectrophotometrically by the increase in fluorescence at 460 nm using Synergy 4 BioTek fluorescence absorbance microplate reader and Gen5 program.

Details of data set [3]: method as in earlier work. Particulars: ref http://www.ilo.org/dyn/icsc/showcard.display?p_version=2&p_card_id=1439; cited from earlier work.

Numbered stars: 1 amine (or outer) side, 2 acyl side, 3 side chain; on linkers, the order of the positions; unused ones are H or OH. Square brackets hold non-standard residues; d marks the D form. Peptide text beside a SMILES is read from it. * marks the point of attachment. βAsp = O=C(O)[C@H](CC(=O)[*:2])N[*:1]; AMC = Cc1cc(=O)oc2cc(N*)ccc12

T1 sequence (P22061 whole entry): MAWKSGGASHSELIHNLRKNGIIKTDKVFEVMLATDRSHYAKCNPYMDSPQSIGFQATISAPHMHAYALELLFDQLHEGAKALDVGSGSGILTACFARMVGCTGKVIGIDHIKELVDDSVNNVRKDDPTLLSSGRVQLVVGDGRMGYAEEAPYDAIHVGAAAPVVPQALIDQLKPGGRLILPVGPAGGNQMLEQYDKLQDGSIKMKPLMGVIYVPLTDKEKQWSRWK

On to `CC(=O)N[C@@H](CCCCN)C(=O)N[C@@H](CCCNC(=N)N)C(=O)N[C@@H](CCCCN)C(=O)NCC(=O)N[C@@H](CC(=O)O)C(=O)N[C@@H](CCC(=O)O)C(=O)N[C@H](C(=O)N[C@@H](CC(=O)O)C(=O)NCC(=O)N[C@H](C(=O)N[C@@H](CC(=O)O)C(=O)N[C@@H](CCC(=O)O)C(=O)N[C@H](C(=O)N[C@@H](C)C(=O)N[C@@H](CCCCN)C(N)=O)C(C)C)C(C)C)C(C)C` [Peptide 1] (Ac-KRKGDEVDGVDEVAK-NH2), for which the “Pimt enzymatic activity (in words)” value in data set [1] was “no enzymatic activity was detected”.
Regarding `CC(=O)N[C@@H](CCCCN)C(=O)N[C@@H](CCCNC(=N)N)C(=O)N[C@@H](CCCCN)C(=O)NCC(=O)N[C@@H](CC(=O)O)C(=O)N[C@@H](CCC(=O)O)C(=O)N[C@H](C(=O)N[C@@H](CC(=O)NCC(=O)N[C@H](C(=O)N[C@@H](CC(=O)O)C(=O)N[C@@H](CCC(=O)O)C(=O)N[C@H](C(=O)N[C@@H](C)C(=O)N[C@@H](CCCCN)C(N)=O)C(C)C)C(C)C)C(=O)O)C(C)C` [Peptide 2] (Ac-KRKGDEV[βAsp]GVDEVAK-NH2), in data set [1], the “Pimt enzymatic activity (in words)” value is reported as “active Pimt enzymatic activity”.
In the case of `CC(=O)N[C@@H](CC(=O)O)C(=O)N[C@@H](CCC(=O)O)C(=O)N[C@H](C(=O)N[C@@H](C)C(=O)Nc1ccc2c(C)cc(=O)oc2c1)C(C)C` [Ac-DEVA-AMC, acetyl-DEVA-7-amido-4-methylcoumarin] (Ac-DEVA-{AMC}), the caspase-3 activity in data set [2] (experiment 1) amounted to 396 R.F.U; in data set [2] (experiment 2), 61 R.F.U; in data set [2] (experiment 3) it was 164 R.F.U. Besides, the “cleavage by Caspase-3 (in words)” value in data set [2] was “non-cleavable”.
The like results for `CC(=O)N[C@@H](CC(=O)O)C(=O)N[C@@H](CCC(=O)O)C(=O)N[C@H](C(=O)NCC(=O)Nc1ccc2c(C)cc(=O)oc2c1)C(C)C` [Ac-DEVG-AMC, acetyl-DEVG-7-amido-4-methylcoumarin] (Ac-DEVG-{AMC}) were, in that order, 650 R.F.U, 558 R.F.U, 613 R.F.U and “non-cleavable”.
Turning to `N[C@@H](CC(=O)O)C(=O)O` [AsparticAcid], the “Octanol/water partition coefficient as log Pow” value in data set [3] is recorded as -3.89.
